Columns and labels:
Conditions in all cases: 72 h
[1] = test system: U2OS; assay: cell viability relative to DMSO; higher = less toxic
[2] = test system: Caco-2; assay: as above
[3] = test system: Calu-3; assay: as above
[4] = test system: HepG2; assay: as above
[5] = test system: Vero E6; assay: as above
[6] = test system: U2OS; assay: relative viability EC50 (midpoint between 100% and the lowest measured viability); higher = less toxic
[7] = test system: Caco-2; assay: as above
[8] = test system: Calu-3; assay: as above
[9] = test system: HepG2; assay: as above
[10] = test system: Vero E6; assay: as above
[11] = test system: U2OS; assay: drug sensitivity score (DSS) for viability; higher = more toxic; extreme values may be limits of the assay
[12] = test system: Caco-2; assay: as above
[13] = test system: Calu-3; assay: as above
[14] = test system: HepG2; assay: as above
[15] = test system: Vero E6; assay: as above

COc1ccc(Cl)cc1C(=O)NCCc1ccc(C(=O)O)cc1 [meglitinide]
cell viability ([1]; 1 nM): 101% | cell viability ([1]; 10 nM): 98.2% | cell viability ([1]; 100 nM): 98.6% | cell viability ([1]; 1000 nM): 93.4% | cell viability ([1]; 10000 nM): 99.6% | cell viability ([2]; 1 nM): 90.9% | cell viability ([2]; 10 nM): 102% | cell viability ([2]; 100 nM): 94.8% | cell viability ([2]; 1000 nM): 91.5% | cell viability ([2]; 10000 nM): 98.1% | cell viability ([3]; 1 nM): 108% | cell viability ([3]; 10 nM): 103% | cell viability ([3]; 100 nM): 98.1% | cell viability ([3]; 1000 nM): 96.8% | cell viability ([3]; 10000 nM): 114% | cell viability ([4]; 1 nM): 109% | cell viability ([4]; 10 nM): 106% | cell viability ([4]; 100 nM): 110% | cell viability ([4]; 1000 nM): 88.7% | cell viability ([4]; 10000 nM): 94.2% | cell viability ([5]; 1 nM): 98.4% | cell viability ([5]; 10 nM): 105% | cell viability ([5]; 100 nM): 100% | cell viability ([5]; 1000 nM): 104% | cell viability ([5]; 10000 nM): 103% | relative viability EC50 [6]: > 10 µM | relative viability EC50 [7]: > 10 µM | relative viability EC50 [8]: > 10 µM | relative viability EC50 [9]: > 10 µM | relative viability EC50 [10]: > 10 µM | drug sensitivity score [11]: 0 | drug sensitivity score [12]: 0 | drug sensitivity score [13]: 0 | drug sensitivity score [14]: 0.3 | drug sensitivity score [15]: 0

CSCC[C@H](NC(=O)[C@H](Cc1ccccc1)NC(=O)CNC(=O)CNC(=O)[C@@H](N)Cc1ccc(O)cc1)C(=O)O [metenkephalin]
cell viability ([1]; 1 nM): 103% | cell viability ([1]; 10 nM): 97.1% | cell viability ([1]; 100 nM): 102% | cell viability ([1]; 1000 nM): 102% | cell viability ([1]; 10000 nM): 102% | cell viability ([2]; 1 nM): 94.7% | cell viability ([2]; 10 nM): 94.9% | cell viability ([2]; 100 nM): 100% | cell viability ([2]; 1000 nM): 96.4% | cell viability ([2]; 10000 nM): 97.2% | cell viability ([3]; 1 nM): 102% | cell viability ([3]; 10 nM): 99.7% | cell viability ([3]; 100 nM): 105% | cell viability ([3]; 1000 nM): 94.3% | cell viability ([3]; 10000 nM): 101% | cell viability ([4]; 1 nM): 96.6% | cell viability ([4]; 10 nM): 99% | cell viability ([4]; 100 nM): 91% | cell viability ([4]; 1000 nM): 115% | cell viability ([4]; 10000 nM): 107% | cell viability ([5]; 1 nM): 93.8% | cell viability ([5]; 10 nM): 96.5% | cell viability ([5]; 100 nM): 96.7% | cell viability ([5]; 1000 nM): 98.4% | cell viability ([5]; 10000 nM): 108% | relative viability EC50 [6]: > 10 µM | relative viability EC50 [7]: > 10 µM | relative viability EC50 [8]: > 10 µM | relative viability EC50 [9]: > 10 µM | relative viability EC50 [10]: > 10 µM | drug sensitivity score [11]: 0 | drug sensitivity score [12]: 0 | drug sensitivity score [13]: 0 | drug sensitivity score [14]: 0 | drug sensitivity score [15]: 0

Cc1[nH]c(=O)c(C#N)cc1-c1ccncc1 [milrinone]
cell viability ([1]; 1 nM): 103% | cell viability ([1]; 10 nM): 95.6% | cell viability ([1]; 100 nM): 99.9% | cell viability ([1]; 1000 nM): 97.7% | cell viability ([1]; 10000 nM): 100% | cell viability ([2]; 1 nM): 100% | cell viability ([2]; 10 nM): 98.4% | cell viability ([2]; 100 nM): 103% | cell viability ([2]; 1000 nM): 87.5% | cell viability ([2]; 10000 nM): 85.9% | cell viability ([3]; 1 nM): 95.3% | cell viability ([3]; 10 nM): 89.1% | cell viability ([3]; 100 nM): 99.5% | cell viability ([3]; 1000 nM): 108% | cell viability ([3]; 10000 nM): 101% | cell viability ([4]; 1 nM): 102% | cell viability ([4]; 10 nM): 101% | cell viability ([4]; 100 nM): 98.3% | cell viability ([4]; 1000 nM): 96.2% | cell viability ([4]; 10000 nM): 106% | cell viability ([5]; 1 nM): 95.6% | cell viability ([5]; 10 nM): 101% | cell viability ([5]; 100 nM): 95.3% | cell viability ([5]; 1000 nM): 97.6% | cell viability ([5]; 10000 nM): 94.5% | relative viability EC50 [6]: > 10 µM | relative viability EC50 [7]: > 10 µM | relative viability EC50 [8]: > 10 µM | relative viability EC50 [9]: > 10 µM | relative viability EC50 [10]: > 10 µM | drug sensitivity score [11]: 0 | drug sensitivity score [12]: 0.9 | drug sensitivity score [13]: 0 | drug sensitivity score [14]: 0 | drug sensitivity score [15]: 0

CCOC(=O)[N-]c1c[n+](N2CCOCC2)no1 [molsidomine]
cell viability ([1]; 1 nM): 99.3% | cell viability ([1]; 10 nM): 97.6% | cell viability ([1]; 100 nM): 104% | cell viability ([1]; 1000 nM): 99.8% | cell viability ([1]; 10000 nM): 102% | cell viability ([2]; 1 nM): 94.4% | cell viability ([2]; 10 nM): 96.5% | cell viability ([2]; 100 nM): 106% | cell viability ([2]; 1000 nM): 95.1% | cell viability ([2]; 10000 nM): 104% | cell viability ([3]; 1 nM): 95.8% | cell viability ([3]; 10 nM): 88.6% | cell viability ([3]; 100 nM): 91.6% | cell viability ([3]; 1000 nM): 91.8% | cell viability ([3]; 10000 nM): 89.4% | cell viability ([4]; 1 nM): 87.6% | cell viability ([4]; 10 nM): 95.4% | cell viability ([4]; 100 nM): 97.8% | cell viability ([4]; 1000 nM): 106% | cell viability ([4]; 10000 nM): 107% | cell viability ([5]; 1 nM): 92.1% | cell viability ([5]; 10 nM): 99.7% | cell viability ([5]; 100 nM): 95.5% | cell viability ([5]; 1000 nM): 96.4% | cell viability ([5]; 10000 nM): 109% | relative viability EC50 [6]: > 10 µM | relative viability EC50 [7]: > 10 µM | relative viability EC50 [8]: > 10 µM | relative viability EC50 [9]: > 10 µM | relative viability EC50 [10]: > 10 µM | drug sensitivity score [11]: 0 | drug sensitivity score [12]: 0 | drug sensitivity score [13]: 0.1 | drug sensitivity score [14]: 0 | drug sensitivity score [15]: 0

CC1CCc2c(N3CCC(O)CC3)c(F)cc3c(=O)c(C(=O)O)cn1c23 (stereo not given) [nadifloxacin]
cell viability ([1]; 1 nM): 98.9% | cell viability ([1]; 10 nM): 97.5% | cell viability ([1]; 100 nM): 98.6% | cell viability ([1]; 1000 nM): 96.1% | cell viability ([1]; 10000 nM): 106% | cell viability ([2]; 1 nM): 104% | cell viability ([2]; 10 nM): 92.1% | cell viability ([2]; 100 nM): 94.7% | cell viability ([2]; 1000 nM): 114% | cell viability ([2]; 10000 nM): 96.2% | cell viability ([3]; 1 nM): 97.6% | cell viability ([3]; 10 nM): 96.4% | cell viability ([3]; 100 nM): 102% | cell viability ([3]; 1000 nM): 105% | cell viability ([3]; 10000 nM): 107% | cell viability ([4]; 1 nM): 97% | cell viability ([4]; 10 nM): 111% | cell viability ([4]; 100 nM): 108% | cell viability ([4]; 1000 nM): 103% | cell viability ([4]; 10000 nM): 107% | cell viability ([5]; 1 nM): 94.5% | cell viability ([5]; 10 nM): 100% | cell viability ([5]; 100 nM): 97.9% | cell viability ([5]; 1000 nM): 95.7% | cell viability ([5]; 10000 nM): 106% | relative viability EC50 [6]: > 10 µM | relative viability EC50 [7]: > 10 µM | relative viability EC50 [8]: > 10 µM | relative viability EC50 [9]: > 10 µM | relative viability EC50 [10]: > 10 µM | drug sensitivity score [11]: 0 | drug sensitivity score [12]: 0 | drug sensitivity score [13]: 0 | drug sensitivity score [14]: 0 | drug sensitivity score [15]: 0

c1ccc2c(CC3=NCCN3)cccc2c1 [naphazoline]
cell viability ([1]; 1 nM): 97% | cell viability ([1]; 10 nM): 101% | cell viability ([1]; 100 nM): 94.9% | cell viability ([1]; 1000 nM): 97.8% | cell viability ([1]; 10000 nM): 93.9% | cell viability ([2]; 1 nM): 95.6% | cell viability ([2]; 10 nM): 102% | cell viability ([2]; 100 nM): 90.1% | cell viability ([2]; 1000 nM): 101% | cell viability ([2]; 10000 nM): 93.2% | cell viability ([3]; 1 nM): 93.6% | cell viability ([3]; 10 nM): 93.6% | cell viability ([3]; 100 nM): 109% | cell viability ([3]; 1000 nM): 107% | cell viability ([3]; 10000 nM): 89% | cell viability ([4]; 1 nM): 96.1% | cell viability ([4]; 10 nM): 102% | cell viability ([4]; 100 nM): 102% | cell viability ([4]; 1000 nM): 98.4% | cell viability ([4]; 10000 nM): 118% | cell viability ([5]; 1 nM): 102% | cell viability ([5]; 10 nM): 99.4% | cell viability ([5]; 100 nM): 95.5% | cell viability ([5]; 1000 nM): 97.7% | cell viability ([5]; 10000 nM): 93.3% | relative viability EC50 [6]: > 10 µM | relative viability EC50 [7]: > 10 µM | relative viability EC50 [8]: > 10 µM | relative viability EC50 [9]: > 10 µM | relative viability EC50 [10]: > 10 µM | drug sensitivity score [11]: 0 | drug sensitivity score [12]: 0 | drug sensitivity score [13]: 0 | drug sensitivity score [14]: 0 | drug sensitivity score [15]: 0

C[C@@H]1O[C@@H](O[C@H]2[C@H](Oc3cc(O)c(C(=O)CCc4ccc(O)cc4)c(O)c3)O[C@H](CO)[C@@H](O)[C@@H]2O)[C@H](O)[C@H](O)[C@H]1O [naringin-dihydrochalcone]
cell viability ([1]; 1 nM): 93.1% | cell viability ([1]; 10 nM): 96.2% | cell viability ([1]; 100 nM): 94.2% | cell viability ([1]; 1000 nM): 102% | cell viability ([1]; 10000 nM): 95.6% | cell viability ([2]; 1 nM): 94.2% | cell viability ([2]; 10 nM): 92.2% | cell viability ([2]; 100 nM): 99.5% | cell viability ([2]; 1000 nM): 102% | cell viability ([2]; 10000 nM): 96.3% | cell viability ([3]; 1 nM): 95.6% | cell viability ([3]; 10 nM): 90.9% | cell viability ([3]; 100 nM): 92.7% | cell viability ([3]; 1000 nM): 101% | cell viability ([3]; 10000 nM): 105% | cell viability ([4]; 1 nM): 110% | cell viability ([4]; 10 nM): 93.2% | cell viability ([4]; 100 nM): 105% | cell viability ([4]; 1000 nM): 90.9% | cell viability ([4]; 10000 nM): 101% | cell viability ([5]; 1 nM): 104% | cell viability ([5]; 10 nM): 104% | cell viability ([5]; 100 nM): 104% | cell viability ([5]; 1000 nM): 102% | cell viability ([5]; 10000 nM): 99.9% | relative viability EC50 [6]: > 10 µM | relative viability EC50 [7]: > 10 µM | relative viability EC50 [8]: > 10 µM | relative viability EC50 [9]: > 10 µM | relative viability EC50 [10]: > 10 µM | drug sensitivity score [11]: 0 | drug sensitivity score [12]: 0 | drug sensitivity score [13]: 0 | drug sensitivity score [14]: 0 | drug sensitivity score [15]: 0

— the supplement of paper PMC13380429
